# Experimental data published in ChEMBL document CHEMBL1629566, “Development and qualification of a pharmacodynamic model for the pronounced inoculum effect of ceftazidime against Pseudomonas aeruginosa” (2009).
# Tests used:
# Assay type in all cases: functional
# Pseudomonas aeruginosa [1] = assay: Antimicrobial activity against Pseudomonas aeruginosa PAO1 infected in in vitro pharmacodynamic model assessed as bacterial killing at 4 mg/L after 24 hrs using 10^6 CFU/ml inoculum by time kill study
# Pseudomonas aeruginosa [2] = assay: Antimicrobial activity against Pseudomonas aeruginosa PAO1 infected in in vitro pharmacodynamic model assessed as bacterial killing at 0 to 128 mg/L using 10^8 CFU/ml inoculum by time kill study
# Pseudomonas aeruginosa [3] = assay: Antimicrobial activity against Pseudomonas aeruginosa PAO1 infected in in vitro pharmacodynamic model assessed as bacterial killing at 4 mg/L after 8 hrs using 10^6 CFU/ml inoculum by time kill study
# Pseudomonas aeruginosa [4] = assay: Antimicrobial activity against Pseudomonas aeruginosa PAO1 infected in in vitro pharmacodynamic model assessed as bacterial killing up to 64 mg/L after 48 hrs using 10^7 CFU/ml inoculum by time kill study
# Pseudomonas aeruginosa [5] = assay: Antimicrobial activity against Pseudomonas aeruginosa PAO1
structure (smiles),measurement,setting,value
CC(C)(O/N=C(\C(=O)N[C@@H]1C(=O)N2C(C(=O)[O-])=C(C[n+]3ccccc3)CS[C@H]12)c1csc(N)n1)C(=O)O [CEFTAZIDIME],log10cfu,Pseudomonas aeruginosa [1],3
same,log10cfu,Pseudomonas aeruginosa [2],<0.3
same,log10cfu,Pseudomonas aeruginosa [3],3
same,log10cfu,Pseudomonas aeruginosa [4],1.6
same,MIC,Pseudomonas aeruginosa [5],2 µg/mL
